Results as given in patent publication US12291502B2, “Topoisomerase II-alpha inhibitors and methods of treating cancer using the same” (The Regents of the University of Colorado, priority 2019, dated 2025).

Legend:
tumor xenograft = assay: Tumor xenograft study, tumor growth; format: in vivo, athymic nude mouse; conditions: i.p. 50 mg/kg, 5× per week over 28 days
Procedure: Finally, a major goal of this drug design approach was to improve the in vivo physicochemical properties of TOP2A inhibitors compared to the natural product neo. Therefore, an in vivo study was conducted using the athymic nude mouse tumor xenograft model to determine if one of these drug leads could accumulate in tumors when administered via intraperitoneal injection (i.p.). […] Thus, compound 42 was administered i.p. at 50 mg/kg, 5× per week over 28 days.

hTopoIIα (TOP2A) = target: T1, hTopoIIα (TOP2A) (Homo sapiens, UniProt P11388); assay: TOP2A ATPase / DNA relaxation assay, Michaelis-Menten mode of inhibition (malachite green); format: biochemical; conditions: Vmax unchanged, KM shifted
T1 construct: purchased Topogen, CO
T1 sequence (P11388 whole entry): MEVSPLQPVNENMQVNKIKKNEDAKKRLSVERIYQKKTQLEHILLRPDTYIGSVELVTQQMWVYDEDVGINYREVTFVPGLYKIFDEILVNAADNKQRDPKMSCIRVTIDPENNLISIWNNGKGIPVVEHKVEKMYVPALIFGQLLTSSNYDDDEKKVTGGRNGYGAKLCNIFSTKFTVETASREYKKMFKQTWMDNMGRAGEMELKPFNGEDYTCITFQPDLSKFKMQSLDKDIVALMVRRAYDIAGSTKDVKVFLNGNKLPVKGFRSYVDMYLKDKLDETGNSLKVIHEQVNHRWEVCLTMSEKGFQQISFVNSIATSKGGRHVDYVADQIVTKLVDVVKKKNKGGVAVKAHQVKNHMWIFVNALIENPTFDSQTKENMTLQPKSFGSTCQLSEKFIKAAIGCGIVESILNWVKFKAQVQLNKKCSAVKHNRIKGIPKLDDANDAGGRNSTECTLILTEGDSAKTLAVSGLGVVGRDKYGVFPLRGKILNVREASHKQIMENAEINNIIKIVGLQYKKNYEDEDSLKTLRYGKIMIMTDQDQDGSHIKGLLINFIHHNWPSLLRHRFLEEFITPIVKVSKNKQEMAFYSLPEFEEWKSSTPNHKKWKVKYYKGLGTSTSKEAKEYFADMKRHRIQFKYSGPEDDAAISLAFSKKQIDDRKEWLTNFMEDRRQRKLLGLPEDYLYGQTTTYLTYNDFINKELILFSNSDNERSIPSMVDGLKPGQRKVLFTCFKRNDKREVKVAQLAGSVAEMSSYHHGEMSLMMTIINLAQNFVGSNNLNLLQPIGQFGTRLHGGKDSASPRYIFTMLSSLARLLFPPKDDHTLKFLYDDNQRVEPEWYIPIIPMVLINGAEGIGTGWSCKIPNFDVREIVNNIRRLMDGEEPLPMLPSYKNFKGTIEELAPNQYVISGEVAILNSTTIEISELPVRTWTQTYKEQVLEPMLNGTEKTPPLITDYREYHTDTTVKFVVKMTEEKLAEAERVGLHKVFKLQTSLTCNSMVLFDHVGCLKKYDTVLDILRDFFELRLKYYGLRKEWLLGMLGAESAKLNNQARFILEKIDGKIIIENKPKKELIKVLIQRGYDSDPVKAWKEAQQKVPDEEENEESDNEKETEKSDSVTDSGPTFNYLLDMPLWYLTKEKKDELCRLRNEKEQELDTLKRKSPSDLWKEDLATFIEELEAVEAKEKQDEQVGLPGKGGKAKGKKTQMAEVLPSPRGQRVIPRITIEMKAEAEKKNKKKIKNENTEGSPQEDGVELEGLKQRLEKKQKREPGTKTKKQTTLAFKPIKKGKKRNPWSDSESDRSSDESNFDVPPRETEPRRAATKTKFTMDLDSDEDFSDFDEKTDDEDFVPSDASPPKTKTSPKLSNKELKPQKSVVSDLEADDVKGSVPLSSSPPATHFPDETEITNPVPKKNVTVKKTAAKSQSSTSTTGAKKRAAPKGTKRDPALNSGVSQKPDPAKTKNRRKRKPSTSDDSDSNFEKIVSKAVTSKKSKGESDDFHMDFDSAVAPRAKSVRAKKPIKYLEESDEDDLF
Procedure: TOP2A inhibition (Michaelis-Menten). TOP2A Mode of Inhibition was tested with a relaxation assay and the inorganic phosphate (pi) generated was measured with phosphate reagent (Abcam) in black polystyrene 384-well assay plates (Thermo Fisher Scientific). ATP-dependent DNA relaxation assays in 15 μl contained 2 U hTopolla (Topogen), 85 μg/mil (10 nM) supercoiled plasmid (a gift from AstraZeneca), and various concentrations of ATP (between […]) and analog 3 and 7 (between 0 and 20 μM) in 50 mM Tris-HCl (pH 7.5), 150 mM KCl, 5% (v/v) glycerol, 10 mM MgCl2, 1 mM dithiothreitol, 0.002% (w/v) Brij-35, and 200 nM bovine serum albumin (BSA). […] An addition of 70 μL of ddH2O and 15 μL of phosphate reagent were added to each well and the plates were incubated in dark at room temp for 30 min before OD600 was read with a BioTek plate reader. […]
TOP2A ATPase Assay. The mode of inhibition of TOP2A analogs were tested with a DNA relaxation assay and the inorganic phosphate (pi) generated was measured with malachite green phosphate reagent (Abcam, MA) in black polystyrene 384-well assay plates (Thermo Fisher Scientific, MA). […] An addition of 70 μL of ddH2O and 15 μL of phosphate reagent were added to each well and the plates were incubated in dark at room temp for 30 min before OD600 was read with a BioTek plate reader. […]

SMILES	tumor growth (tumor xenograft)	mode of TOP2A inhibition (Michaelis-Menten kinetics of ATP hydrolysis) (hTopoIIα (TOP2A))
O=C(CCN1CCOCC1)Nc1ccc2c(-c3cc(F)ccc3O)ccnc2c1O [Analog 42]	no loss of any tumor growth was observed	
CC(=O)Nc1ccc2c(-c3cc(F)ccc3O)ccnc2c1O [Analog 7]		ATP-competitive mode of inhibition
Cn1ccc2c(c1=O)C(=O)c1nccc3c1C2NC1=CCC=CC13 (stereo not drawn) [neo, neoamphimedine, reference compound]		ATP-competitive mode of inhibition
